Target: human GLP-1R (Homo sapiens, UniProt P43220)
Assay: GLP-1R Cell Assay 1: cAMP Hunter CHO-K1 GLP1R Gs cell line, HitHunter cAMP assay
Type: cell-based
Conditions: cAMP Hunter CHO-K1 GLP1R Gs cells, percent activity normalized to Exendin-4
Summary of the method: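 Luminescent enzyme-fragment-complementation immunoassay quantified cellular cAMP after 30-60 min compound exposure at 37 °C in HBSS/10 mM HEPES. Data from duplicate runs were normalised to Exendin-4 and fitted nonlinearly for EC50.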

Chain of human GLP-1R (P43220 24-463): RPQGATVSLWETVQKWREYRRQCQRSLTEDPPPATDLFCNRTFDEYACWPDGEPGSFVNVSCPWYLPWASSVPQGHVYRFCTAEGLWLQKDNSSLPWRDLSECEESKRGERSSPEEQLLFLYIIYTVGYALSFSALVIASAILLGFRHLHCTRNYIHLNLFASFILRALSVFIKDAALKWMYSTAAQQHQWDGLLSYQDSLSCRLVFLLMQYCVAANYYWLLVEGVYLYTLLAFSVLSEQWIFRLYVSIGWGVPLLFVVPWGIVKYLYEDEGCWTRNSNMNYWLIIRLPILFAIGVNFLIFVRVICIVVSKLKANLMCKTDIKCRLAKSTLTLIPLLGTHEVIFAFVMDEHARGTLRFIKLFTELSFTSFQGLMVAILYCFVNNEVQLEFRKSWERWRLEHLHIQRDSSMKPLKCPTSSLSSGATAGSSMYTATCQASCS

Row | SMILES | EC50 (Table 2) | EC50 (Table 3)
1 | CCn1ccnc1Cn1c(CN2CC[C@]3(c4cccc(N5CCc6cc(C#N)cc(F)c6C5)n4)C[C@@H]3C2)nc2ccc(C(=O)O)cc21 [Compound 163-P2, 2-(((1S,6R)-6-(6-(6-cyano-8-fluoro-3,4-dihydroisoquinolin-2(1H)-yl)pyridin-2-yl)-3-azabicyclo[4.1.0]heptan-3-yl)methyl)-1-((1-ethyl-1H-imidazol-2-yl)methyl)-1H-benzo[d]imidazole-6-carboxylic acid] |  | 0.414 nM
2 | CN(Cc1ccc(C(N)=O)cc1)c1cccc(N2CCN(Cc3nc4ccc(C(=O)O)cc4n3C[C@@H]3CCO3)CC2)n1 [Compound 64, (S)-2-((4-(6-((4-carbamoylbenzyl)(methyl)amino)pyridin-2-yl)piperazin-1-yl)methyl)-1-(oxetan-2-ylmethyl)-1H-benzo[d]imidazole-6-carboxylic acid] | > 500 nM | 
3 | O=C(O)c1ccc2nc(CN3CCN(c4cccc(OCc5ccccc5)n4)C(=O)C3)n(C[C@@H]3CCO3)c2c1 [Compound 19, (S)-2-((4-(6-(benzyloxy)pyridin-2-yl)-3-oxopiperazin-1-yl)methyl)-1-(oxetan-2-ylmethyl)-1H-benzo[d]imidazole-6-carboxylic acid] | 41.2 nM | 
4 | N#Cc1cccc2c1CCN(c1cccc(N3CCN(Cc4nc5ccc(C(=O)O)cc5n4C[C@@H]4CCO4)CC3)n1)CC2 [Compound 79, (S)-2-((4-(6-(6-cyano-1,2,4,5-tetrahydro-3H-benzo[d]azepin-3-yl)pyridin-2-yl)piperazin-1-yl)methyl)-1-(oxetan-2-ylmethyl)-1H-benzo[d]imidazole-6-carboxylic acid] | 206 nM | 
5 | O=C(O)c1ccc2nc(CN3CCN(c4cccc(OCCC5COC5)n4)CC3)n(C[C@@H]3CCO3)c2c1 [Compound 35, (S)-1-(oxetan-2-ylmethyl)-2-((4-(6-(2-(oxetan-3-yl)ethoxy)pyridin-2-yl)piperazin-1-yl)methyl)-1H-benzo[d]imidazole-6-carboxylic acid] | > 500 nM | 
6 | O=C(O)c1ccc2nc(CN3CCN(c4ccc5ncn(Cc6ccccc6)c5n4)CC3)n(C[C@@H]3CCO3)c2c1 [Compound 28, (S)-2-((4-(3-benzyl-3H-imidazo[4,5-b]pyridin-5-yl)piperazin-1-yl)methyl)-1-(oxetan-2-ylmethyl)-1H-benzo[d]imidazole-6-carboxylic acid] | > 500 nM | 
7 | O=C(O)c1ccc2nc(CN3CCN(c4cccc(OCCC5CCCCC5)n4)CC3)n(C[C@@H]3CCO3)c2c1 [Compound 44, (S)-2-((4-(6-(2-cyclohexylethoxy)pyridin-2-yl)piperazin-1-yl)methyl)-1-(oxetan-2-ylmethyl)-1H-benzo[d]imidazole-6-carboxylic acid] | 82.1 nM | 
8 | O=C(O)c1ccc2nc(CN3CCN(c4cccc5c4CCN(c4ccccc4)C5)CC3)n(C[C@@H]3CCO3)c2c1 [Compound 155, (S)-1-(oxetan-2-ylmethyl)-2-((4-(2-phenyl-1,2,3,4-tetrahydroisoquinolin-5-yl)piperazin-1-yl)methyl)-1H-benzo[d]imidazole-6-carboxylic acid] |  | > 500 nM
9 | N#Cc1ccc(COc2nn(C3CCN(Cc4nc5ccc(C(=O)O)cc5n4C[C@@H]4CCO4)CC3)cc2CO)c(F)c1 [Compound 136, (S)-2-((4-(3-((4-cyano-2-fluorobenzyl)oxy)-4-(hydroxymethyl)-1H-pyrazol-1-yl)piperidin-1-yl)methyl)-1-(oxetan-2-ylmethyl)-1H-benzo[d]imidazole-6-carboxylic acid] | 109 nM | 
10 | O=C(O)c1ccc2nc(CN3CCC4(c5cccc(OCc6ccccc6)n5)CC4C3)n(CC3CCO3)c2c1 (stereo not shown) [Compound 10] | 13.9 nM | 
11 | O=C(O)c1ccc2nc(CN3CCC(c4cccc(OC5CCCc6ccccc65)n4)CC3)n(C[C@@H]3CCO3)c2c1 (stereo partly drawn) [Compound 161, 1-(((S)-oxetan-2-yl)methyl)-2-((4-(6-((1,2,3,4-tetrahydronaphthalen-1-yl)oxy)pyridin-2-yl)piperidin-1-yl)methyl)-1H-benzo[d]imidazole-6-carboxylic acid] |  | 304 nM
12 | O=C(O)c1ccc2nc(CN3CC[C@]4(c5cccc(OCc6ccc(Cl)cc6F)n5)C[C@@H]4C3)n(C[C@@H]3CCO3)c2c1 [Compound 98, 2-(((1S,6R)-6-(6-((4-chloro-2-fluorobenzyl)oxy)pyridin-2-yl)-3-azabicyclo[4.1.0]heptan-3-yl)methyl)-1-(((S)-oxetan-2-yl)methyl)-1H-benzo[d]imidazole-6-carboxylic acid] | 0.556 nM | 

The next lines start with the values.

Row | EC50 (Table 2) | EC50 (Table 3) | SMILES
13 | 0.552 nM |  | O=C(O)c1ccc2nc(CN3CCN(c4cccc(OCc5nc6cc(F)ccc6s5)n4)CC3)n(C[C@@H]3CCO3)c2c1 [Compound 119, (S)-2-((4-(6-((5-fluorobenzo[d]thiazol-2-yl)methoxy)pyridin-2-yl)piperazin-1-yl)methyl)-1-(oxetan-2-ylmethyl)-1H-benzo[d]imidazole-6-carboxylic acid]
14 | 37.9 nM |  | N#Cc1cccc2c1CN(c1cccc(N3CCN(Cc4nc5ccc(C(=O)O)cc5n4C[C@@H]4CCO4)CC3)n1)CCC2 [Compound 80, (S)-2-((4-(6-(9-cyano-1,3,4,5-tetrahydro-2H-benzo[c]azepin-2-yl)pyridin-2-yl)piperazin-1-yl)methyl)-1-(oxetan-2-ylmethyl)-1H-benzo[d]imidazole-6-carboxylic acid]
15 | 0.221 nM |  | O=C(O)c1ccc2nc(CN3CCN(c4cccc(OCc5ccc(Cl)cn5)n4)CC3)n(C[C@@H]3CCO3)c2c1 [Compound 58, (S)-2-((4-(6-((5-chloropyridin-2-yl)methoxy)pyridin-2-yl)piperazin-1-yl)methyl)-1-(oxetan-2-ylmethyl)-1H-benzo[d]imidazole-6-carboxylic acid]
16 | 0.0329 nM |  | CCn1cncc1Cn1c(CN2CCC(c3cccc(OCc4nc5ccccc5s4)n3)CC2)nc2ccc(C(=O)O)cc21 [Compound 125, 2-((4-(6-(benzo[d]thiazol-2-ylmethoxy)pyridin-2-yl)piperidin-1-yl)methyl)-1-((1-ethyl-1H-imidazol-5-yl)methyl)-1H-benzo[d]imidazole-6-carboxylic acid]
17 | 2.03 nM |  | O=C(O)c1ccc2nc(CN3CCN(c4cccc(OCc5cc6ccccc6o5)n4)CC3)n(C[C@@H]3CCO3)c2c1 [Compound 68, (S)-2-((4-(6-(benzofuran-2-ylmethoxy)pyridin-2-yl)piperazin-1-yl)methyl)-1-(oxetan-2-ylmethyl)-1H-benzo[d]imidazole-6-carboxylic acid]
18 | 8.18 nM |  | N#Cc1ccc2c(c1)CCN(c1cccc(N3CCN(Cc4nc5ccc(C(=O)O)cc5n4C[C@@H]4CCO4)CC3)n1)C2 [Compound 60, (S)-2-((4-(6-(6-cyano-3,4-dihydroisoquinolin-2(1H)-yl)pyridin-2-yl)piperazin-1-yl)methyl)-1-(oxetan-2-ylmethyl)-1H-benzo[d]imidazole-6-carboxylic acid]
19 | 3.84 nM |  | O=C(O)c1ccc2nc(CN3CCN(c4cccc(OCc5ccncc5)n4)CC3)n(C[C@@H]3CCO3)c2c1 [Compound 42, (S)-1-(oxetan-2-ylmethyl)-2-((4-(6-(pyridin-4-ylmethoxy)pyridin-2-yl)piperazin-1-yl)methyl)-1H-benzo[d]imidazole-6-carboxylic acid]
20 | 36.8 nM |  | N#Cc1ccc(COc2nn(C3CCN(Cc4nc5ccc(C(=O)O)cc5n4C[C@@H]4CCO4)CC3)cc2C#N)c(F)c1 [Compound 111, (S)-2-((4-(4-cyano-3-((4-cyano-2-fluorobenzyl)oxy)-1H-pyrazol-1-yl)piperidin-1-yl)methyl)-1-(oxetan-2-ylmethyl)-1H-benzo[d]imidazole-6-carboxylic acid]
21 | 1.09 nM |  | O=C(O)c1ccc2nc(CN3CCN(c4cccc(N5CCc6cc(Cl)cc(F)c6C5)n4)CC3)n(C[C@@H]3CCO3)c2c1 [Compound 127, (S)-2-((4-(6-(6-chloro-8-fluoro-3,4-dihydroisoquinolin-2(1H)-yl)pyridin-2-yl)piperazin-1-yl)methyl)-1-(oxetan-2-ylmethyl)-1H-benzo[d]imidazole-6-carboxylic acid]
22 | 34 nM |  | N#Cc1ccc(COc2nn(C3CCN(Cc4nc5ccc(C(=O)O)cc5n4C[C@@H]4CCO4)CC3)cc2C2CC2)c(F)c1 [Compound 132, (S)-2-((4-(3-((4-cyano-2-fluorobenzyl)oxy)-4-cyclopropyl-1H-pyrazol-1-yl)piperidin-1-yl)methyl)-1-(oxetan-2-ylmethyl)-1H-benzo[d]imidazole-6-carboxylic acid]

Reference: patent US20220089578A1, “COMPOUNDS AS GLP-1R AGONISTS” (Terns Pharmaceuticals, Inc., priority 2020, published 2022)
